Here are results for 24 molecules from BindingDB's records for patent US12065447 (Shanghai Institute of Materia Medica, 2024).

The experiment deals with T1, Receptor-interacting serine/threonine-protein kinase 1 (Homo sapiens, UniProt Q13546).
T1 sequence (Q13546 whole entry): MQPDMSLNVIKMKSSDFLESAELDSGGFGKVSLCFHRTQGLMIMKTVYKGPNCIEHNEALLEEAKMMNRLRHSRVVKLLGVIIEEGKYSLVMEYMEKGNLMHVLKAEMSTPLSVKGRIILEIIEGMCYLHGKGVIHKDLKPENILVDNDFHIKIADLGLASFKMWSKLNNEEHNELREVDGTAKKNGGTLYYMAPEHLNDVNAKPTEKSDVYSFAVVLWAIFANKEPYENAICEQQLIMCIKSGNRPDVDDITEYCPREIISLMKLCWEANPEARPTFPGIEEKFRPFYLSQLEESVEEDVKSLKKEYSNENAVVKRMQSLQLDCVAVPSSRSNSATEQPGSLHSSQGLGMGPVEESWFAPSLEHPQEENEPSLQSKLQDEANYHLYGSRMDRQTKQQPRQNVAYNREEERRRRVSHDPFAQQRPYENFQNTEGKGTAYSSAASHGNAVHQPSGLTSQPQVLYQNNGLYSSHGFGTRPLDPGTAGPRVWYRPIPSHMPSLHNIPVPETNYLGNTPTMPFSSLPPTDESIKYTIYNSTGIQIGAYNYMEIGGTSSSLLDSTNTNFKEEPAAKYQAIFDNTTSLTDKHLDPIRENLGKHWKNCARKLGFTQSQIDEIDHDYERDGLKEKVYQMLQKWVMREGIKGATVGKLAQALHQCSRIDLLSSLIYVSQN
In words: Cell Viability Test. The text has this: TNFalpha induced U937 cell programmed necroptosis system was used to screen for compounds with RIP 1 kinase inhibitory activity.

Bounds are passed on as bounds.

For the molecule `Cc1c(C#Cc2ccncc2)sc2c1SC[C@H](NC(=O)c1nnc(Cc3ccccc3)[nH]1)C(=O)N2C` [US12065447, Compound ZB-R-47], half-maximal inhibition (IC50) was put at 0.39 nM. Take `COCC#Cc1sc2c(c1C)SC[C@H](NC(=O)c1nnc(Cc3ccccc3)[nH]1)C(=O)N2C` [US12065447, Compound ZB-R-84]: the IC50 stood at 0.19 nM. Under `Cc1c(C#Cc2cncn2C)sc2c1SC[C@H](NC(=O)c1nnc(Cc3ccccc3)[nH]1)C(=O)N2C` [US12065447, Compound ZB-R-82] stands 0.3 nM; under `Cc1c(C#CC2CC2)sc2c1SC[C@H](NC(=O)c1nnc(Cc3ccccc3)[nH]1)C(=O)N2C` [US12065447, Compound ZB-R-45], 8.13 nM. With `CN1C(=O)[C@@H](NC(=O)c2n[nH]c(Cc3ccccc3)n2)COc2ccc(C#CC3CCOCC3)cc21` [US12065447, Compound ZB-R-54], inhibition was half-maximal at 0.1 nM (IC50).

In the case of `CN1C(=O)[C@@H](NC(=O)c2cc(Cc3ccccc3)ccn2)COc2ccc(C#Cc3cccnc3)cc21` [US12065447, Compound ZB-R-25], the IC50 was < 2 nM. Turning to `CN1C(=O)[C@@H](NC(=O)c2ncc(Cc3ccccc3)o2)COc2ccc(C#Cc3cccnc3)cc21` [US12065447, Compound ZB-R-20], the IC50 is < 0.5 nM. `Cc1c(C#CC(C)(C)O)sc2c1SC[C@H](NC(=O)c1nnc(Cc3ccccc3)[nH]1)C(=O)N2C` [US12065447, Compound ZB-R-85] gave an IC50 of 1.09 nM.

`CN1C(=O)[C@@H](NC(=O)c2n[nH]c(Cc3ccccc3)n2)COc2ccc(C#Cc3cnn(C)c3)cc21` [US12065447, Compound ZB-R-53] returned an IC50 of 0.11 nM.

`CN1C(=O)[C@@H](NC(=O)c2n[nH]c(Cc3ccccc3)n2)COc2ccc(C#CC3(O)COC3)cc21` [US12065447, Compound ZB-R-78] registered a 50% inhibitory concentration (IC50) of 0.35 nM. The value for `Cc1cc([C@](C)(O)C#Cc2sc3c(c2C)SC[C@H](NC(=O)c2nnc(Cc4ccccc4)[nH]2)C(=O)N3C)no1` [US12065447, Compound ZB-R-89] was 1.7 nM; that for `Cc1cc([C@](C)(O)C#Cc2ccc3c(c2)N(C)C(=O)[C@@H](NC(=O)c2nnc(Cc4ccccc4)[nH]2)CO3)no1` [US12065447, Compound ZB-R-80] was 0.31 nM.

Regarding `CN1C(=O)[C@@H](NC(=O)c2n[nH]c(Cc3ccccc3)n2)COc2ccc(C#Cc3cccnc3)cc21` [US12065447, Compound ZB-R-51], the IC50 is < 0.5 nM. `COCC#Cc1ccc2c(c1)N(C)C(=O)[C@@H](NC(=O)c1nnc(Cc3ccccc3)[nH]1)CO2` [US12065447, Compound ZB-R-68] showed an IC50 of 0.2 nM. On to `CN1C(=O)[C@@H](NC(=O)c2n[nH]c(Cc3ccccc3)n2)COc2ccc(C#Cc3ccncc3)cc21` [US12065447, Compound ZB-R-52], for which the IC50 turned out to be 0.42 nM. Turning to `Cc1c(C#CC2CCOCC2)sc2c1SC[C@H](NC(=O)c1nnc(Cc3ccccc3)[nH]1)C(=O)N2C` [US12065447, Compound ZB-R-44], the IC50 was determined as 4.08 nM.

Molecule `CN1C(=O)[C@@H](NC(=O)c2n[nH]c(Cc3ccccc3)n2)COc2ccc(C#Cc3ccccn3)cc21` [US12065447, Compound ZB-R-50] returned an IC50 of 0.26 nM. Consider `Cc1c(C#Cc2ccccn2)sc2c1SC[C@H](NC(=O)c1nnc(Cc3ccccc3)[nH]1)C(=O)N2C` [US12065447, Compound ZB-R-46], for which it took 5.39 nM to reach half-maximal inhibition (IC50).

Consider `CN1C(=O)[C@@H](NC(=O)c2ncn(Cc3ccccc3)n2)COc2ccc(C#Cc3cccnc3)cc21` [US12065447, Compound ZB-R-24], for which the IC50 is < 1 nM.

As for `Cc1c(C#Cc2cccnc2)sc2c1SC[C@H](NC(=O)c1nnc(Cc3ccccc3)[nH]1)C(=O)N2C` [US12065447, Compound ZB-R-42], it took 0.32 nM to reach half-maximal inhibition (IC50).

`Cc1c(C#Cc2cnn(C)c2)sc2c1SC[C@H](NC(=O)c1nnc(Cc3ccccc3)[nH]1)C(=O)N2C` [US12065447, Compound ZB-R-39] had an IC50 of 0.17 nM. The value for `Cc1c(C#CC2(O)COC2)sc2c1SC[C@H](NC(=O)c1nnc(Cc3ccccc3)[nH]1)C(=O)N2C` [US12065447, Compound ZB-R-87] was 0.2 nM; that for `Cc1cc([C@@](C)(O)C#Cc2ccc3c(c2)N(C)C(=O)[C@@H](NC(=O)c2nnc(Cc4ccccc4)[nH]2)CO3)no1` [US12065447, Compound ZB-R-81] was 0.29 nM. `CN1C(=O)[C@@H](NC(=O)c2n[nH]c(Cc3ccccc3)n2)COc2ccc(C#CC(C)(C)O)cc21` [US12065447, Compound ZB-R-76] had an IC50 of 0.54 nM.

As a reminder, the IC50 is the concentration that inhibits the measured activity by half.
